Experimental data as given in ChEMBL document CHEMBL5528028, “Discovery of benzopyridone cyanoacetates as new type of potential broad-spectrum antibacterial candidates” (Eur J Med Chem, 2024).
In brackets after ≈: the same amount, converted by molar mass.

Tests used:
Type in all cases: functional
Klebsiella pneumoniae = assay: Antibacterial activity against Klebsiella pneumonia assessed growth inhibition by micro broth dilution method
Pseudomonas aeruginosa [1] = assay: Antibacterial activity against Pseudomonas aeruginosa assessed growth inhibition by micro broth dilution method
Staphylococcus aureus [2] = assay: Antibacterial activity against methicillin-resistant Staphylococcus aureus assessed growth inhibition by micro broth dilution method
Staphylococcus aureus [3] = assay: Antibacterial activity against Staphylococcus aureus ATCC 29213 assessed growth inhibition by micro broth dilution method
Acinetobacter baumannii = assay: Antibacterial activity against Acinetobacter baumannii assessed growth inhibition by micro broth dilution method
Staphylococcus aureus [4] = assay: Antibacterial activity against Staphylococcus aureus ATCC 25923 assessed growth inhibition by micro broth dilution method
Escherichia coli [5] = assay: Antibacterial activity against Escherichia coli assessed growth inhibition by micro broth dilution method
Staphylococcus aureus [6] = assay: Antibacterial activity against Staphylococcus aureus assessed growth inhibition by micro broth dilution method
Escherichia coli [7] = assay: Antibacterial activity against Escherichia coli ATCC 25922 assessed growth inhibition by micro broth dilution method
Enterococcus faecalis = assay: Antibacterial activity against Enterococcus faecalis assessed growth inhibition by micro broth dilution method
Pseudomonas aeruginosa [8] = assay: Antibacterial activity against Pseudomonas aeruginosa ATCC 27853 assessed growth inhibition by micro broth dilution method

| SMILES | MIC (Klebsiella pneumoniae) | MIC (Pseudomonas aeruginosa [1]) | MIC (Staphylococcus aureus [2]) | MIC (Staphylococcus aureus [3]) | MIC (Acinetobacter baumannii) | MIC (Staphylococcus aureus [4]) | MIC (Escherichia coli [5]) | MIC (Staphylococcus aureus [6]) | MIC (Escherichia coli [7]) | MIC (Enterococcus faecalis) | MIC (Pseudomonas aeruginosa [8]) |
| --- | --- | --- | --- | --- | --- | --- | --- | --- | --- | --- | --- |
| CCOC(=O)c1cn(CC2CCCCC2)c2cc(C(C#N)C(=O)OCC)c(F)cc2c1=O (configuration not stated) | 4 µg/mL (≈ 9.04 µM) | 1 µg/mL (≈ 2.26 µM) | 64 µg/mL (≈ 145 µM) | 4 µg/mL (≈ 9.04 µM) | 4 µg/mL (≈ 9.04 µM) | 1 µg/mL (≈ 2.26 µM) | 4 µg/mL (≈ 9.04 µM) | 64 µg/mL (≈ 145 µM) | 0.5 µg/mL (≈ 1.13 µM) | 16 µg/mL (≈ 36.2 µM) | 1 µg/mL (≈ 2.26 µM) |
| CCOC(=O)c1cn(CC(N)=O)c2cc([C-](C#N)C(=O)OCC)c(F)cc2c1=O.[Na+] (configuration not stated) | 256 µg/mL | 256 µg/mL | 256 µg/mL | 256 µg/mL | 256 µg/mL | 256 µg/mL | 256 µg/mL | 256 µg/mL | 256 µg/mL | 256 µg/mL | 256 µg/mL |
| CCOC(=O)c1cn(CC=C(C)C)c2cc([C-](C#N)C(=O)OCC)c(F)cc2c1=O.[Na+] (configuration not stated) | 8 µg/mL | 256 µg/mL | 256 µg/mL | 8 µg/mL | 256 µg/mL | 0.5 µg/mL | 256 µg/mL | 256 µg/mL | 8 µg/mL | 256 µg/mL | 8 µg/mL |
| CCOC(=O)c1cn(C2CC2)c2cc(F)c(F)cc2c1=O | 64 µg/mL (≈ 218 µM) | 32 µg/mL (≈ 109 µM) | 256 µg/mL (≈ 873 µM) | 128 µg/mL (≈ 436 µM) | 256 µg/mL (≈ 873 µM) | 16 µg/mL (≈ 54.6 µM) | 16 µg/mL (≈ 54.6 µM) | 64 µg/mL (≈ 218 µM) | 64 µg/mL (≈ 218 µM) | 128 µg/mL (≈ 436 µM) | 256 µg/mL (≈ 873 µM) |
| CCn1cc(C(=O)O)c(=O)c2cc(F)c(N3CCNCC3)cc21 [NORFLOXACIN] | 8 µg/mL (≈ 25.1 µM) | 8 µg/mL (≈ 25.1 µM) | 8 µg/mL (≈ 25.1 µM) | 4 µg/mL (≈ 12.5 µM) | 2 µg/mL (≈ 6.26 µM) | 8 µg/mL (≈ 25.1 µM) | 4 µg/mL (≈ 12.5 µM) | 8 µg/mL (≈ 25.1 µM) | 4 µg/mL (≈ 12.5 µM) | 8 µg/mL (≈ 25.1 µM) | 8 µg/mL (≈ 25.1 µM) |
| CCOC(=O)C(C#N)c1cc2c(cc1F)c(=O)c(C(=O)O)cn2Cc1ccc(F)cc1F (configuration not stated) | 0.5 µg/mL (≈ 1.13 µM) | 16 µg/mL (≈ 36 µM) | 8 µg/mL (≈ 18 µM) | 4 µg/mL (≈ 9 µM) | 2 µg/mL (≈ 4.5 µM) | 1 µg/mL (≈ 2.25 µM) | 16 µg/mL (≈ 36 µM) | 4 µg/mL (≈ 9 µM) | 0.5 µg/mL (≈ 1.13 µM) | 8 µg/mL (≈ 18 µM) | 2 µg/mL (≈ 4.5 µM) |
| CCOC(=O)c1cn(Cc2ccccn2)c2cc(F)c(F)cc2c1=O | 128 µg/mL (≈ 372 µM) | 128 µg/mL (≈ 372 µM) | 256 µg/mL (≈ 744 µM) | 128 µg/mL (≈ 372 µM) | 16 µg/mL (≈ 46.5 µM) | 64 µg/mL (≈ 186 µM) | 2 µg/mL (≈ 5.81 µM) | 64 µg/mL (≈ 186 µM) | 64 µg/mL (≈ 186 µM) | 128 µg/mL (≈ 372 µM) | 64 µg/mL (≈ 186 µM) |
| CCOC(=O)c1cn(CC)c2c(F)c([C-](C#N)C(=O)OCC)c(F)cc2c1=O.[Na+] (configuration not stated) | 16 µg/mL | 64 µg/mL | 32 µg/mL | 16 µg/mL | 32 µg/mL | 16 µg/mL | 64 µg/mL | 16 µg/mL | 1 µg/mL | 32 µg/mL | 16 µg/mL |
| CCOC(=O)c1cn(CC2CCCCC2)c2cc(F)c(F)cc2c1=O | 8 µg/mL (≈ 22.9 µM) | 64 µg/mL (≈ 183 µM) | 128 µg/mL (≈ 366 µM) | 64 µg/mL (≈ 183 µM) | 256 µg/mL (≈ 733 µM) | 2 µg/mL (≈ 5.72 µM) | 4 µg/mL (≈ 11.4 µM) | 16 µg/mL (≈ 45.8 µM) | 128 µg/mL (≈ 366 µM) | 128 µg/mL (≈ 366 µM) | 256 µg/mL (≈ 733 µM) |
| C=CCn1cc(C(=O)OCC)c(=O)c2cc(F)c([C-](C#N)C(=O)OCC)cc21.[Na+] (configuration not stated) | 32 µg/mL | 16 µg/mL | 128 µg/mL | 32 µg/mL | 16 µg/mL | 2 µg/mL | 32 µg/mL | 128 µg/mL | 16 µg/mL | 64 µg/mL | 16 µg/mL |
| CCOC(=O)c1cn(CC)c2cc(F)c(F)cc2c1=O | 64 µg/mL (≈ 228 µM) | 64 µg/mL (≈ 228 µM) | 256 µg/mL (≈ 910 µM) | 128 µg/mL (≈ 455 µM) | 256 µg/mL (≈ 910 µM) | 256 µg/mL (≈ 910 µM) | 16 µg/mL (≈ 56.9 µM) | 32 µg/mL (≈ 114 µM) | 64 µg/mL (≈ 228 µM) | 128 µg/mL (≈ 455 µM) | 256 µg/mL (≈ 910 µM) |
| CCOC(=O)C(C#N)c1cc2c(cc1F)c(=O)c(C(=O)O)cn2Cc1ccc(Cl)c(Cl)c1 (configuration not stated) | 4 µg/mL (≈ 8.38 µM) | 16 µg/mL (≈ 33.5 µM) | 32 µg/mL (≈ 67 µM) | 64 µg/mL (≈ 134 µM) | 16 µg/mL (≈ 33.5 µM) | 32 µg/mL (≈ 67 µM) | 128 µg/mL (≈ 268 µM) | 64 µg/mL (≈ 134 µM) | 0.5 µg/mL (≈ 1.05 µM) | 128 µg/mL (≈ 268 µM) | 4 µg/mL (≈ 8.38 µM) |
| CCOC(=O)c1cn(C2CC2)c2cc([C-](C#N)C(=O)OCC)c(F)cc2c1=O.[Na+] (configuration not stated) | 16 µg/mL | 32 µg/mL | 16 µg/mL | 32 µg/mL | 32 µg/mL | 8 µg/mL | 16 µg/mL | 32 µg/mL | 32 µg/mL | 16 µg/mL | 16 µg/mL |
| CCCCCCn1cc(C(=O)OCC)c(=O)c2cc(F)c([C-](C#N)C(=O)OCC)cc21.[Na+] (configuration not stated) | 1 µg/mL | 0.5 µg/mL | 32 µg/mL | 1 µg/mL | 0.5 µg/mL | 0.5 µg/mL | 0.5 µg/mL | 16 µg/mL | 1 µg/mL | 16 µg/mL | 1 µg/mL |
| CCOC(=O)c1cn(CC2CC2)c2cc([C-](C#N)C(=O)OCC)c(F)cc2c1=O.[Na+] (configuration not stated) | 16 µg/mL | 16 µg/mL | 64 µg/mL | 16 µg/mL | 16 µg/mL | 4 µg/mL | 16 µg/mL | 64 µg/mL | 4 µg/mL | 64 µg/mL | 8 µg/mL |
| C#CCn1cc(C(=O)OCC)c(=O)c2cc(F)c(F)cc21 | 128 µg/mL (≈ 439 µM) | 16 µg/mL (≈ 54.9 µM) | 128 µg/mL (≈ 439 µM) | 128 µg/mL (≈ 439 µM) | 256 µg/mL (≈ 879 µM) | 256 µg/mL (≈ 879 µM) | 4 µg/mL (≈ 13.7 µM) | 128 µg/mL (≈ 439 µM) | 64 µg/mL (≈ 220 µM) | 128 µg/mL (≈ 439 µM) | 256 µg/mL (≈ 879 µM) |
| CCCCn1cc(C(=O)OCC)c(=O)c2cc(F)c(F)cc21 | 64 µg/mL (≈ 207 µM) | 64 µg/mL (≈ 207 µM) | 256 µg/mL (≈ 828 µM) | 128 µg/mL (≈ 414 µM) | 128 µg/mL (≈ 414 µM) | 128 µg/mL (≈ 414 µM) | 16 µg/mL (≈ 51.7 µM) | 32 µg/mL (≈ 103 µM) | 128 µg/mL (≈ 414 µM) | 64 µg/mL (≈ 207 µM) | 256 µg/mL (≈ 828 µM) |
| CCCCCCCCCCCCn1cc(C(=O)OCC)c(=O)c2cc(F)c([C-](C#N)C(=O)OCC)cc21.[Na+] (configuration not stated) | 1 µg/mL | 4 µg/mL | 8 µg/mL | 1 µg/mL | 0.25 µg/mL | 1 µg/mL | 1 µg/mL | 32 µg/mL | 0.5 µg/mL | 8 µg/mL | 0.25 µg/mL |
| CCOC(=O)c1cn(Cc2ccc(F)cc2F)c2cc([C-](C#N)C(=O)OCC)c(F)cc2c1=O.[Na+] (configuration not stated) | 4 µg/mL | 64 µg/mL | 64 µg/mL | 4 µg/mL | 32 µg/mL | 0.5 µg/mL | 1 µg/mL | 128 µg/mL | 2 µg/mL | 8 µg/mL | 2 µg/mL |
| CCOC(=O)c1cn(CC(N)=O)c2cc(F)c(F)cc2c1=O | 256 µg/mL (≈ 825 µM) | 64 µg/mL (≈ 206 µM) | 256 µg/mL (≈ 825 µM) | 256 µg/mL (≈ 825 µM) | 16 µg/mL (≈ 51.6 µM) | 256 µg/mL (≈ 825 µM) | 8 µg/mL (≈ 25.8 µM) | 128 µg/mL (≈ 413 µM) | 32 µg/mL (≈ 103 µM) | 256 µg/mL (≈ 825 µM) | 64 µg/mL (≈ 206 µM) |
| CCCn1cc(C(=O)OCC)c(=O)c2cc(F)c([C-](C#N)C(=O)OCC)cc21.[Na+] (configuration not stated) | 16 µg/mL | 8 µg/mL | 64 µg/mL | 16 µg/mL | 16 µg/mL | 2 µg/mL | 16 µg/mL | 128 µg/mL | 4 µg/mL | 16 µg/mL | 8 µg/mL |
| CCCCCCCCCCCCn1cc(C(=O)OCC)c(=O)c2cc(F)c(F)cc21 | 16 µg/mL (≈ 38 µM) | 64 µg/mL (≈ 152 µM) | 256 µg/mL (≈ 607 µM) | 32 µg/mL (≈ 75.9 µM) | 64 µg/mL (≈ 152 µM) | 128 µg/mL (≈ 304 µM) | 16 µg/mL (≈ 38 µM) | 32 µg/mL (≈ 75.9 µM) | 64 µg/mL (≈ 152 µM) | 64 µg/mL (≈ 152 µM) | 256 µg/mL (≈ 607 µM) |
